Measured values taken from ChEMBL document CHEMBL1201862, “PubChem BioAssay data set” (2004).
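The compound was tested at five concentrations on cells cultured in 96-well plates, with a 48-hour exposure period. Here, GI50 denotes the concentration required for 50% inhibition of growth.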 The source made the active and inactive calls. Rule as the data show it: active = GI50 up to about 1.1 µM and inactive = higher.

Columns and labels:
Assay in all cases: growth of human tumour cells (NCI), 48 h
T47D = test system: T47D
LOX IMVI = test system: LOX IMVI
HOP-62 = test system: HOP-62
786-0 = test system: 786-0
SF-268 = test system: SF-268
NCI-H23 = test system: NCI-H23
Hs-578T = test system: Hs-578T
SW-620 = test system: SW-620
IGROV-1 = test system: IGROV-1
OVCAR-8 = test system: OVCAR-8
MDA-MB-435 = test system: MDA-MB-435
MDA-MB-231 = test system: MDA-MB-231
HCC 2998 = test system: HCC 2998
KM12 = test system: KM12
RPMI-8226 = test system: RPMI-8226
UACC-257 = test system: UACC-257
OVCAR-4 = test system: OVCAR-4
EKVX = test system: EKVX
SNB-75 = test system: SNB-75
BT-549 = test system: BT-549

Structure (SMILES)	GI50 (T47D)	GI50 (LOX IMVI)	GI50 (HOP-62)	GI50 (786-0)	GI50 (SF-268)	GI50 (NCI-H23)	GI50 (Hs-578T)	GI50 (SW-620)	GI50 (IGROV-1)	GI50 (OVCAR-8)	GI50 (MDA-MB-435)	GI50 (MDA-MB-231)	GI50 (HCC 2998)	GI50 (KM12)	GI50 (RPMI-8226)	GI50 (UACC-257)	GI50 (OVCAR-4)	GI50 (EKVX)	GI50 (SNB-75)	GI50 (BT-549)
C/C=C(/C)C(=O)O[C@H]1C[C@@H]2[C@@H](O)c3occ(C)c3C[C@]2(C)[C@@H](C)C1	11.6 µM (inactive)	17.5 µM (inactive)	17.4 µM (inactive)	16.1 µM (inactive)	16 µM (inactive)	17.8 µM (inactive)	28.8 µM (inactive)	16.2 µM (inactive)	16.7 µM (inactive)	19.2 µM (inactive)	16.5 µM (inactive)	15.5 µM (inactive)	16.6 µM (inactive)	16.3 µM (inactive)	25.6 µM (inactive)	11.1 µM (inactive)	18 µM (inactive)	15.8 µM (inactive)	–	–
COc1ccc(/C=C2\NC(=S)N(CN3CCOCC3)C2=O)cc1	–	> 100 µM (inactive)	> 100 µM (inactive)	> 100 µM (inactive)	> 100 µM (inactive)	> 100 µM (inactive)	> 100 µM (inactive)	> 100 µM (inactive)	> 100 µM (inactive)	> 100 µM (inactive)	> 100 µM (inactive)	> 100 µM (inactive)	–	> 100 µM (inactive)	> 100 µM (inactive)	> 100 µM (inactive)	> 100 µM (inactive)	> 100 µM (inactive)	> 100 µM (inactive)	–
CCN(CC)CC/N=c1\c2cc(OC)ccc2[nH]c2c([N+](=O)[O-])ccc(NCCN(CC)CC)c12	> 7.38 µM (inactive)	0.794 µM (active)	1.18 µM (inactive)	0.399 µM (active)	2.27 µM (inactive)	1.86 µM (inactive)	1.46 µM (inactive)	0.6 µM (active)	2.34 µM (inactive)	0.482 µM (active)	1.88 µM (inactive)	0.966 µM (active)	0.718 µM (active)	0.875 µM (active)	0.451 µM (active)	4.17 µM (inactive)	1.15 µM (inactive)	1.93 µM (inactive)	1.9 µM (inactive)	–
Cn1/c(=N\c2ccccc2[N+](=O)[O-])sc2ccccc21	3.95 µM (inactive)	> 100 µM (inactive)	20.6 µM (inactive)	30.7 µM (inactive)	70.5 µM (inactive)	26 µM (inactive)	16.5 µM (inactive)	> 100 µM (inactive)	5.4 µM (inactive)	49.9 µM (inactive)	> 100 µM (inactive)	6.1 µM (inactive)	30.3 µM (inactive)	1.6 µM (inactive)	> 100 µM (inactive)	29.9 µM (inactive)	16.1 µM (inactive)	8.61 µM (inactive)	18.4 µM (inactive)	–
COc1ccc(NC(=O)/C(O)=C/C(=O)c2ccccc2)cc1	> 10 µM (inactive)	1.96 µM (inactive)	> 10 µM (inactive)	> 10 µM (inactive)	> 10 µM (inactive)	> 10 µM (inactive)	–	> 10 µM (inactive)	7.38 µM (inactive)	> 10 µM (inactive)	> 10 µM (inactive)	> 10 µM (inactive)	> 10 µM (inactive)	> 10 µM (inactive)	> 10 µM (inactive)	> 10 µM (inactive)	> 10 µM (inactive)	> 10 µM (inactive)	> 10 µM (inactive)	–
COc1cc(C2SCCCCCCCCCCSC(c3ccc(O)c(OC)c3)SCCCCCCCCCCS2)ccc1O (stereo unspecified)	> 100 µM (inactive)	> 100 µM (inactive)	> 100 µM (inactive)	> 100 µM (inactive)	52.1 µM (inactive)	> 100 µM (inactive)	–	> 100 µM (inactive)	> 100 µM (inactive)	> 100 µM (inactive)	> 100 µM (inactive)	> 100 µM (inactive)	–	> 100 µM (inactive)	> 100 µM (inactive)	> 100 µM (inactive)	> 100 µM (inactive)	> 100 µM (inactive)	52.6 µM (inactive)	> 100 µM (inactive)
CC(C)C[C@H](NC(=O)[C@@H](N)Cc1cccc2ccccc12)B(O)O	0.0168 µM (active)	< 0.0179 µM (active)	0.0575 µM (active)	< 0.0216 µM (active)	–	0.0249 µM (active)	–	< 0.015 µM (active)	0.0665 µM (active)	0.0719 µM (active)	< 0.0134 µM (active)	0.0354 µM (active)	0.173 µM (active)	0.0281 µM (active)	< 0.0164 µM (active)	0.0311 µM (active)	0.232 µM (active)	–	0.0259 µM (active)	0.0203 µM (active)
